Assay results published in publication PMC12728570, “Sphingomyelin synthase inhibitors from edible mushrooms prevent overweight and improve vitamin D homeostasis in a mouse model of diet-induced obesity” (Frontiers in Nutrition, 2025).
Read-outs that look alike come from different tables or passages of the source.

How the values were obtained:
[1] = test system: T1, SMS2 (sphingomyelin synthase 2); test: HPLC-fluorescence enzyme assay, ZS2 cell lysate; assay type: biochemical; conditions: Path 2: 5 μM C6-NBD-ceramide to NBD-SM; 5 μM C6-NBD-PC present; 37 °C, 30 min preincubation
T1 construct: gene SGMS2; stably expressed in SMS1/SMS2-deficient mouse embryonic fibroblasts (ZS2), cell lysate
Description: HPLC-fluorescence enzyme assay, ZS2 cell lysate on SMS2 (sphingomyelin synthase 2)

[2] = test system: T2, SMS1 (sphingomyelin synthase 1); test: HPLC-fluorescence enzyme assay, ZS2 cell lysate; assay type: biochemical; conditions: 37 °C, 30 min preincubation
T2 construct: gene SGMS1; stably expressed in SMS1/SMS2-deficient mouse embryonic fibroblasts (ZS2), cell lysate
Description: HPLC-fluorescence enzyme assay, ZS2 cell lysate on SMS1 (sphingomyelin synthase 1)

Row | IC50 [1] [µM] | IC50 ([2]; Path 2: 5 μM C6-NBD-ceramide to NBD-SM, 5 μM C6-NBD-PC present) [µM] | IC50 ([2]; read-out: IC50 (μM) / SMS1 / Path 1) [µM] | Compound
1 | 3 | 0.6 | – | CC(C)=CCC/C(C)=C/CC/C(C)=C/Cc1c(O)cc(C)cc1O [grifolin]
2 | 2.5 | – | 3 | CC(C)=CCC/C(C)=C/CC/C(C)=C/Cc1c(O)cc(C)c(C(=O)O)c1O [grifolic acid]
